By melting point is commonly meant the temperature, or range, at which the solid turns liquid. On to `CC1(C)C(=O)NC(=O)c2c1ccc1nc(Nc3c(Cl)cccc3Cl)[nH]c21` [Example 1, 2-(2,6-Dichlorophenylamino)-6,6-dimethyl-1H,6H-imidazo[4,5-h]isoquinoline-7,9-dione], for which the melting point fell in the range of 290 to 292 °C.
In turn, `CC1(C)CNC(=O)c2c1ccc1nc(Nc3c(Cl)cccc3Cl)[nH]c21` [Example 2, 2-(2,6-Dichlorophenylamino)-6,6-dimethyl-7,8-dihydro-1H,6H-imidazo[4,5-h]isoquinoline-9-one] returned a melting point of 287 to 290 °C.
As to `Cc1[nH]c(=O)c2c(ccc3nc(Nc4c(Cl)cccc4Cl)[nH]c32)c1C` [Example 3a, 2-(2,6-Dichlorophenylamino)-6,7-dimethyl-1,8-dihydro-imidazo[4,5-h]isoquinoline-9-one], the melting point was more than 300 °C.
Compound `CC1(C)C(=O)NC(=O)c2c1ccc1nc(Nc3c(Cl)cccc3Cl)sc21` [Example 5, 2-(2,6-Dichlorophenylamino)-6,6-dimethyl-6H-thiazolo[4,5-h]isoquinoline-7,9-dione] showed a melting point of more than 300 °C.
For `Cc1[nH]c(=O)c2c(ccc3nc(Nc4c(Cl)cccc4Cl)n(C)c32)c1CC(=O)N1CCOCC1` [Example 7, 2-(2,6-Dichlorophenylamino)-1,7-dimethyl-6-(2-morpholin-4-yl-2-oxoethyl)-1,8-dihydro-imidazo[4,5-h]isoquinoline-9-one], the melting point is more than 300 °C.
As to `Cc1[nH]c(=O)c2c(ccc3nc(Nc4c(Cl)cccc4Cl)n(C)c32)c1CCN1CCOCC1` [Example 8, 2-(2,6-Dichlorophenylamino)-1,7-dimethyl-6-(2-morpholin-4-yl-ethyl)-1,8-dihydro-imidazo[4,5-h]isoquinoline-9-one], the melting point is 285 to 290 °C.
On to `CCOC(=O)Cc1c(C)[nH]c(=O)c2c1ccc1nc(Nc3c(Cl)cccc3Cl)n(C)c12` [Example 9, 2-(2,6-Dichlorophenylamino)-1,7-dimethyl-9-oxo-1,8-dihydro-imidazo[4,5-h]isoquinolin-6-yl acetic acid ethyl ester], for which the melting point is 280 to 285 °C (dec.).
The compound `Cc1[nH]c(=O)c2c(ccc3nc(Nc4c(Cl)cccc4Cl)n(C)c32)c1CCO` [Example 10, 2-(2,6-Dichlorophenylamino)-1,7-dimethyl-6-(2-hydroxyethyl)-1,8-dihydro-imidazo[4,5-h]isoquinoline-9-one] showed a melting point of more than 300 °C.
For `COC(=O)/C=C/c1[nH]c(=O)c2c(ccc3nc(Nc4c(Cl)cccc4Cl)n(C)c32)c1C` [Example 12, 3-[2-(2,6-Dichlorophenylamino)-1,6-dimethyl-9-oxo-8,9-dihydro-1H-imidazo[4,5-h]isoquinolin-7-yl]-acrylic acid methyl ester], the melting point was more than 300 °C.
`Cc1c(/C=C/CO)[nH]c(=O)c2c1ccc1nc(Nc3c(Cl)cccc3Cl)n(C)c12` [Example 14, 2-(2,6-Dichlorophenylamino)-1,6-dimethyl-7-(3-hydroxy-propen-1-yl)-1,8-dihydro-imidazo[4,5-h]isoquinolin-9-one] returned a melting point of 298 to 300 °C.
In turn, `C=Cc1[nH]c(=O)c2c(ccc3nc(Nc4c(Cl)cccc4Cl)n(C)c32)c1C` [Example 15, 2-(2,6-Dichlorophenylamino)-1,6-dimethyl-7-vinyl-1,8-dihydro-imidazo[4,5-h]isoquinoline-9-one] had a melting point of more than 300 °C.
As for `C=CC(O)c1[nH]c(=O)c2c(ccc3nc(Nc4c(Cl)cccc4Cl)n(C)c32)c1C` (stereo not shown) [Example 16, 2-(2,6-Dichlorophenylamino)-1,6-dimethyl-7-(1-hydroxyprop-2-en-1-yl)-1,8-dihydro-imidazo[4,5-h]isoquinolin-9-one], the melting point lay in the range of 235 to 236 °C.
`Cc1c(/C=C/CN2CCOCC2)[nH]c(=O)c2c1ccc1nc(Nc3c(Cl)cccc3Cl)n(C)c12` [Example 18, 2-(2,6-Dichlorophenylamino)-1,6-dimethyl-7-(3-morpholin-4-yl-propen-1-yl)-1,8-dihydro-imidazo[4,5-h]-isoquinolin-9-one] displayed a melting point of 175 to 177 °C.
The value for `Cc1c(CNCc2ccccc2)[nH]c(=O)c2c1ccc1nc(Nc3c(Cl)cccc3Cl)n(C)c12` [Example 19, 7-Benzylaminomethyl-2-(2,6-dichlorophenylamino)-1,6-dimethyl-1,8-dihydro-imidazo[4,5-h]-isoquinolin-9-one] was 231 to 234 °C; that for `Cc1c(-c2cnco2)[nH]c(=O)c2c1ccc1nc(Nc3c(Cl)cccc3Cl)n(C)c12` [Example 20, 2-(2,6-Dichlorophenylamino)-1,6-dimethyl-7-oxazol-5-yl-1,8-dihydro-imidazo[4,5-h]isoquinolin-9-one] was more than 300 °C.
Take `Cc1c(-c2cncn2C)[nH]c(=O)c2c1ccc1nc(Nc3c(Cl)cccc3Cl)n(C)c12` [Example 21, 2-(2,6-Dichlorophenylamino)-1,6-dimethyl-7-(3-methyl-3H-imidazol-4-yl)-1,8-dihydro-imidazo[4,5-h]isoquinolin-9-one]: the melting point is more than 300 °C.
Consider `O=c1[nH]c2ccccc2c2ccc3nc(Nc4c(Cl)cccc4Cl)[nH]c3c12` [Example 26, 2-(2,6-Dichlorophenylamino)-3,5-dihydro-imidazo[4,5-i]phenanthridin-4-one], for which the melting point is more than 300 °C.
For `Cn1c(Nc2c(Cl)cccc2Cl)nc2ccc3c4c([nH]c(=O)c3c21)CCC4` [Example 27, 2-(2,6-Dichlorophenylamino)-3-methyl-5,6,7,8-tetrahydro-3H-1,3,5-triaza-dicyclopenta[a,f]naphthalen-4-one], the melting point is > 300 °C (dec.).
`Cc1c(/C=C/CN)[nH]c(=O)c2c1ccc1nc(Nc3c(Cl)cccc3Cl)n(C)c12` [Example 28, 7-(3-Aminopropen-1-yl)-2-(2,6dichlorophenylamino)-1,6-dimethyl-1,8-dihydro-imidazo[4,5-h]-isoquinolin-9-one] registered a melting point of more than 300 °C.

The values are drawn from patent US6506769B2, “Heterocyclic compounds useful as inhibitors of tyrosine kinases” (Boehringer Ingelheim Pharmaceuticals, Inc., priority 1999, dated 2003).
